# Legend:
# [1] = target: Dual specificity protein kinase TTK (Homo sapiens) (UniProt P33981); details: Compound concentration 1000.0 nM
# [2] = target: Angiopoietin-1 receptor (Homo sapiens) (UniProt Q02763); details: Compound concentration 1000.0 nM
# [3] = target: Homeodomain-interacting protein kinase 2 (Homo sapiens) (UniProt Q9H2X6); details: Compound concentration 1000.0 nM
# [4] = test system: Phosphatidylinositol 4,5-bisphosphate 3-kinase catalytic subunit alpha isoform (Homo sapiens), P42336 [I800L]; details: Compound concentration 1000.0 nM
# [5] = target: Serine/threonine-protein kinase ICK (Homo sapiens) (UniProt Q9UPZ9); details: Compound concentration 1000.0 nM
# [6] = test system: Receptor-type tyrosine-protein kinase FLT3 (Homo sapiens), P36888 [D835V]; details: Compound concentration 1000.0 nM
# [7] = target: Serine/threonine-protein kinase NIM1 (Homo sapiens) (UniProt Q8IY84); details: Compound concentration 1000.0 nM
# [8] = target: Protein kinase C theta type (Homo sapiens) (UniProt Q04759); details: Compound concentration 1000.0 nM
# [9] = test system: Tyrosine-protein kinase ABL1 (Homo sapiens), P00519 [Q252H]; details: Compound concentration 1000.0 nM
# [10] = target: Cyclin-dependent kinase 13 (Homo sapiens) (UniProt Q14004); details: Compound concentration 1000.0 nM
# [11] = target: Ribosomal protein S6 kinase beta-1 (Homo sapiens) (UniProt P23443); details: Compound concentration 1000.0 nM
# [12] = target: Mitogen-activated protein kinase kinase kinase 4 (Homo sapiens) (UniProt Q9Y6R4); details: Compound concentration 1000.0 nM
# [13] = test system: Proto-oncogene tyrosine-protein kinase receptor Ret (Homo sapiens), P07949 [V804L]; details: Compound concentration 1000.0 nM
# [14] = target: Ephrin type-A receptor 6 (Homo sapiens) (UniProt Q9UF33); details: Compound concentration 1000.0 nM
# [15] = test system: Tyrosine-protein kinase ABL1 (Homo sapiens), P00519 [Q252H]; details: Compound concentration 1000.0 nM; remark: listed apart in the source
# [16] = target: Cyclin-dependent kinase 4 (Homo sapiens) (UniProt P11802); details: Compound concentration 1000.0 nM
# [17] = target: Serine/threonine-protein kinase Nek2 (Homo sapiens) (UniProt P51955); details: Compound concentration 1000.0 nM
# [18] = target: Sulfonylurea receptors; K-ATP channels (Homo sapiens) (UniProt Q14654+O60706+Q09428+Q15842); assay: KATP channel CEREP ligand profiling; type: protein-complex assay; details: filed as antagonist; Compound concentration 10.0 uM
# [19] = target: Phosphatidylinositol 5-phosphate 4-kinase type-2 gamma (Homo sapiens) (UniProt Q8TBX8); details: Compound concentration 1000.0 nM
# [20] = target: Rhodopsin kinase GRK1 (Homo sapiens) (UniProt Q15835); details: Compound concentration 1000.0 nM
# [21] = target: 5-hydroxytryptamine receptor 2B (Homo sapiens, UniProt P41595); assay: 5-HT2B (h) CEREP ligand profiling; details: filed as agonist, Compound concentration 10.0 uM
# [22] = target: Type-2 angiotensin II receptor (Homo sapiens) (UniProt P50052); assay: AT2 (h) CEREP ligand profiling; details: filed as agonist, Compound concentration 10.0 uM
# [23] = target: Serine/threonine-protein kinase PAK 3 (Homo sapiens) (UniProt O75914); details: Compound concentration 1000.0 nM
# [24] = target: Serine/threonine-protein kinase 16 (Homo sapiens) (UniProt O75716); details: Compound concentration 1000.0 nM
# [25] = target: Ephrin type-A receptor 7 (Homo sapiens) (UniProt Q15375); details: Compound concentration 1000.0 nM
# [26] = target: Macrophage colony-stimulating factor 1 receptor (Homo sapiens) (UniProt P07333); details: Compound concentration 1000.0 nM
# [27] = target: Hepatocyte growth factor receptor (Homo sapiens) (UniProt P08581); details: Compound concentration 1000.0 nM
# [28] = target: Receptor-interacting serine/threonine-protein kinase 4 (Homo sapiens) (UniProt P57078); details: Compound concentration 1000.0 nM
# [29] = target: Megakaryocyte-associated tyrosine-protein kinase (Homo sapiens) (UniProt P42679); details: Compound concentration 1000.0 nM
# [30] = target: Dual specificity mitogen-activated protein kinase kinase 3 (Homo sapiens) (UniProt P46734); details: Compound concentration 1000.0 nM
# [31] = target: Cyclin-dependent kinase 14 (Homo sapiens) (UniProt O94921); details: Compound concentration 1000.0 nM
# [32] = target: Protein kinase C epsilon type (Homo sapiens) (UniProt Q02156); details: Compound concentration 1000.0 nM
# [33] = target: Alpha-1D adrenergic receptor (Homo sapiens) (UniProt P25100); details: Compound concentration 10.0 uM
# [34] = target: Ribosomal protein S6 kinase alpha-2 (Homo sapiens) (UniProt Q15349); details: Compound concentration 1000.0 nM
# [35] = target: Mitogen-activated protein kinase kinase kinase 5 (Homo sapiens) (UniProt Q99683); details: Compound concentration 1000.0 nM
# [36] = target: Melatonin receptor type 1B (Homo sapiens) (UniProt P49286); assay: MT2 (ML1B) (h) CEREP ligand profiling; details: filed as agonist, Compound concentration 10.0 uM
# [37] = target: Phosphatidylinositol 4,5-bisphosphate 3-kinase catalytic subunit alpha isoform (Homo sapiens) (UniProt P42336); details: Compound concentration 1000.0 nM
# [38] = target: High affinity nerve growth factor receptor (Homo sapiens) (UniProt P04629); details: Compound concentration 1000.0 nM
# [39] = target: Serine/threonine-protein kinase VRK2 (Homo sapiens) (UniProt Q86Y07); details: Compound concentration 1000.0 nM
# [40] = target: Ankyrin repeat and protein kinase domain-containing protein 1 (Homo sapiens) (UniProt Q8NFD2); details: Compound concentration 1000.0 nM
# [41] = target: Serine/threonine-protein kinase Nek5 (Homo sapiens) (UniProt Q6P3R8); details: Compound concentration 1000.0 nM
# [42] = target: Death-associated protein kinase 2 (Homo sapiens) (UniProt Q9UIK4); details: Compound concentration 1000.0 nM
# [43] = target: Serine/threonine-protein kinase 36 (Homo sapiens) (UniProt Q9NRP7); details: Compound concentration 1000.0 nM
# [44] = target: Ribosomal protein S6 kinase alpha-2 (Homo sapiens) (UniProt Q15349); details: Compound concentration 1000.0 nM; remark: listed apart in the source
# [45] = target: Serine/threonine-protein kinase ULK3 (Homo sapiens) (UniProt Q6PHR2); details: Compound concentration 1000.0 nM
# Chain of Ribosomal protein S6 kinase alpha-2 (Homo sapiens) (Q15349 whole entry): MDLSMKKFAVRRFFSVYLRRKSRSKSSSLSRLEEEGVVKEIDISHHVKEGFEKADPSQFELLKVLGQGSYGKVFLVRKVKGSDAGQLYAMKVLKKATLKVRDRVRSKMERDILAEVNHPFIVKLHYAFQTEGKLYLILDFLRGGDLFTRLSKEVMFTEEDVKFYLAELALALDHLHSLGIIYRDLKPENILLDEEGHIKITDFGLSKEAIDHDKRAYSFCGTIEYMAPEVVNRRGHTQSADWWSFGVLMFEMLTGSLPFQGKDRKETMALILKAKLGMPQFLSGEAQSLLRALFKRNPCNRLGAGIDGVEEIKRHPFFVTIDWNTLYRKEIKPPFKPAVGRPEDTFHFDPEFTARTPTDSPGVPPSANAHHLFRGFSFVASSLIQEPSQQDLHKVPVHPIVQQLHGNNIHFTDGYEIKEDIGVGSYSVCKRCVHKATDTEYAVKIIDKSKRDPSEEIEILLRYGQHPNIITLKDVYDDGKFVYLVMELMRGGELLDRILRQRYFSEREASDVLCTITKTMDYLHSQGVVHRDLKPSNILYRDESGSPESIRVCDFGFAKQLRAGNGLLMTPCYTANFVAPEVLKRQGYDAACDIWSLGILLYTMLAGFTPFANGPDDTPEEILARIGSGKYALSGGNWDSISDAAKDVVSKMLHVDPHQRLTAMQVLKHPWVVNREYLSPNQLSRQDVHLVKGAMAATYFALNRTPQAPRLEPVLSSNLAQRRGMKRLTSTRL
# Chain of Serine/threonine-protein kinase Nek5 (Homo sapiens) (Q6P3R8 whole entry): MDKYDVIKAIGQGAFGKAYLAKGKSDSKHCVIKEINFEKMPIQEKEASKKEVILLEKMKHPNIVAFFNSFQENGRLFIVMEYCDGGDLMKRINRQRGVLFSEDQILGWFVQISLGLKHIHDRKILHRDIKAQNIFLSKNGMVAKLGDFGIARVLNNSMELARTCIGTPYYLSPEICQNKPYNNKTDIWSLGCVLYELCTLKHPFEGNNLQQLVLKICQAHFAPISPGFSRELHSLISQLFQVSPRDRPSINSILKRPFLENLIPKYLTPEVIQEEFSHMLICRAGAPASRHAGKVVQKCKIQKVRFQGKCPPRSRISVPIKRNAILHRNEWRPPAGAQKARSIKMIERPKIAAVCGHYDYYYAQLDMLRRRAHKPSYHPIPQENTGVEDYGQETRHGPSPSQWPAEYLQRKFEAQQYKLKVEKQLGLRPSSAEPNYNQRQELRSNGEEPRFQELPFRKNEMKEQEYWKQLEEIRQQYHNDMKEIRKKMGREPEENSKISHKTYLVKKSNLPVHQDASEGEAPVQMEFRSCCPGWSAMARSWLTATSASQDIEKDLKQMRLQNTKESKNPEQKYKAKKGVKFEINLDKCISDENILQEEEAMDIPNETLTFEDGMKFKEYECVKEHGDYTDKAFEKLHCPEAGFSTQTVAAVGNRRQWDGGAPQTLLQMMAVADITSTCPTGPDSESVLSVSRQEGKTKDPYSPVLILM
# Chain of Megakaryocyte-associated tyrosine-protein kinase (Homo sapiens) (P42679 whole entry): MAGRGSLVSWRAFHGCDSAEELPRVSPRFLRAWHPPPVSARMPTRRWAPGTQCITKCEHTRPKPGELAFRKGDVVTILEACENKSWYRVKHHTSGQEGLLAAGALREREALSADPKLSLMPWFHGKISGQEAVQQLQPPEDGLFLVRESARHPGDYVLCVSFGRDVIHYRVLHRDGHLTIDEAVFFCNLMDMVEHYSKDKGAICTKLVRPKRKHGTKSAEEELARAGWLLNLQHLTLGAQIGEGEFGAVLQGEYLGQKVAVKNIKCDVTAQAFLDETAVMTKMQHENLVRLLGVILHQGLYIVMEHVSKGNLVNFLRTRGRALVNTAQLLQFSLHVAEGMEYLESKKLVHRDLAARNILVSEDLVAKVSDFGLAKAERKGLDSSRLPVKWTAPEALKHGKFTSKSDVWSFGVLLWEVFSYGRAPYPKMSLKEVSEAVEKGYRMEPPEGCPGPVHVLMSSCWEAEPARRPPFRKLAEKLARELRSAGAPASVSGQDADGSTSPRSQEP
# Chain of Ephrin type-A receptor 7 (Homo sapiens) (Q15375 28-998 limits assumed): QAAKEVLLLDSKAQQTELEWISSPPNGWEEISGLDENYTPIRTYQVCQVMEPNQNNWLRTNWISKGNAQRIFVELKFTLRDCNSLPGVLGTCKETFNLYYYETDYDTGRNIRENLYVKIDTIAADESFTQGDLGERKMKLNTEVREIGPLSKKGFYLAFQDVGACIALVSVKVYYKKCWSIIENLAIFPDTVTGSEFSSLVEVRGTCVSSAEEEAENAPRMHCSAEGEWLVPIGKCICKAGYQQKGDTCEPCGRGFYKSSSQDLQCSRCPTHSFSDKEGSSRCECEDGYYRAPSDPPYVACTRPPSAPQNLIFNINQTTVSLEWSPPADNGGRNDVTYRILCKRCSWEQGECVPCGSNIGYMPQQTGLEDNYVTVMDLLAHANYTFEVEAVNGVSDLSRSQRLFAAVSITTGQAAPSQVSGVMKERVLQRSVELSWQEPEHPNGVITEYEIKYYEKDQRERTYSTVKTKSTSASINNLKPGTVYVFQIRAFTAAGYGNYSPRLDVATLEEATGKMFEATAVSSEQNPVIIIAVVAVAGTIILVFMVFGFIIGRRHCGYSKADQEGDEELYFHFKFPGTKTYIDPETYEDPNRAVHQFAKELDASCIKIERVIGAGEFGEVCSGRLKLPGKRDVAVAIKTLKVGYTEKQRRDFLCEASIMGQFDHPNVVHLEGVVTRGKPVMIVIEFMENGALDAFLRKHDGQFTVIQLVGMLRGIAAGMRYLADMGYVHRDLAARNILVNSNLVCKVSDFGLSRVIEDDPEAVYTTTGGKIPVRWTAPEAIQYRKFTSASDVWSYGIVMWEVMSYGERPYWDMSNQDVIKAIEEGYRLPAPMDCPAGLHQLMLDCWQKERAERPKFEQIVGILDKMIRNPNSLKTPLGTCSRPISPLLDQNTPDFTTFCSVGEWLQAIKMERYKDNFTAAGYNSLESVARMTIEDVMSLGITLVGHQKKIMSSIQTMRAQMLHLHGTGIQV
# Chain of Serine/threonine-protein kinase VRK2 (Homo sapiens) (Q86Y07 whole entry, the tested form may be a part): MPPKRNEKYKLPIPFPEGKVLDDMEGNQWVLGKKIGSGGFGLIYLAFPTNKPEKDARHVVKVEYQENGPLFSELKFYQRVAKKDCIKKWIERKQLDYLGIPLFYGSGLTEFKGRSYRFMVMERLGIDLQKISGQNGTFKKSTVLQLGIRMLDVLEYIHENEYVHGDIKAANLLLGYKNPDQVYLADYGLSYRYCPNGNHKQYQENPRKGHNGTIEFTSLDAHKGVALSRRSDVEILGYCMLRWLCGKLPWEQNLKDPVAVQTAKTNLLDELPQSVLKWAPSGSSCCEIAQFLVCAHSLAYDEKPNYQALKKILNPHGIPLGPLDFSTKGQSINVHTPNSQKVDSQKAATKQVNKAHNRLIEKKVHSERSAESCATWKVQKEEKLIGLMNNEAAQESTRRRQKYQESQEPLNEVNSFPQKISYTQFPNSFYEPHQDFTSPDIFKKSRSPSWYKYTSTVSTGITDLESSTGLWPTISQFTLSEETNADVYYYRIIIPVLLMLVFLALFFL
# Chain of Proto-oncogene tyrosine-protein kinase receptor Ret (Homo sapiens), P07949 [V804L] (P07949 whole entry V804L): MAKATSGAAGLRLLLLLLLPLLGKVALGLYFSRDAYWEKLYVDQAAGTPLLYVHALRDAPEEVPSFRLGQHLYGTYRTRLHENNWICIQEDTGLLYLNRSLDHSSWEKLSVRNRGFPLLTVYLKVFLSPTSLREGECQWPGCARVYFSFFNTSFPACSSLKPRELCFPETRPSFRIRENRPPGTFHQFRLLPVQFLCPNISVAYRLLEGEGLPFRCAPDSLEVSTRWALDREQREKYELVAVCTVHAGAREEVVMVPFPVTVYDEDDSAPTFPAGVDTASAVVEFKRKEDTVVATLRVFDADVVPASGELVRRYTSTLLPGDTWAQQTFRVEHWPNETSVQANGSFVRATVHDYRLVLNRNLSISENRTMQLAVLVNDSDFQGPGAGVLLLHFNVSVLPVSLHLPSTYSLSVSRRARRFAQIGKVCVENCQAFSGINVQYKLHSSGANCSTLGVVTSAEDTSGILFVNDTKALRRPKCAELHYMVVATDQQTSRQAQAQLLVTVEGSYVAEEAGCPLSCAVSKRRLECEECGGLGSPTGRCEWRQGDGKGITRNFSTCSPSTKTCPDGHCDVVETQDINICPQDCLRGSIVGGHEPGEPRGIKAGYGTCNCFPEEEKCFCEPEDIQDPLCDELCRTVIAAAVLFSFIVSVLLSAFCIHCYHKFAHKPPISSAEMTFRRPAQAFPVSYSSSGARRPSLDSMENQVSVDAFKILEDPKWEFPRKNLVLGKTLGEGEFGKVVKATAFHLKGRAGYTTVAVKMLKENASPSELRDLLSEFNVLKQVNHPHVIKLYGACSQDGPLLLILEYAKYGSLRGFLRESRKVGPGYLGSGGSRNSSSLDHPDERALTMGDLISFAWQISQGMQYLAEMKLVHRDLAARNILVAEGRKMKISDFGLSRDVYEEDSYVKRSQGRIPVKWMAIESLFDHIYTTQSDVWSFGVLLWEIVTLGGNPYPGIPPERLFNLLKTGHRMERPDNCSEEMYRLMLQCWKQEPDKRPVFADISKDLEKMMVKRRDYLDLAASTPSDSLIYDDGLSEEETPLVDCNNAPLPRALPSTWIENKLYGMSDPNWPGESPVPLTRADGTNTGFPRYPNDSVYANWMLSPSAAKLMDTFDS
# Chain of Serine/threonine-protein kinase 16 (Homo sapiens) (O75716 whole entry): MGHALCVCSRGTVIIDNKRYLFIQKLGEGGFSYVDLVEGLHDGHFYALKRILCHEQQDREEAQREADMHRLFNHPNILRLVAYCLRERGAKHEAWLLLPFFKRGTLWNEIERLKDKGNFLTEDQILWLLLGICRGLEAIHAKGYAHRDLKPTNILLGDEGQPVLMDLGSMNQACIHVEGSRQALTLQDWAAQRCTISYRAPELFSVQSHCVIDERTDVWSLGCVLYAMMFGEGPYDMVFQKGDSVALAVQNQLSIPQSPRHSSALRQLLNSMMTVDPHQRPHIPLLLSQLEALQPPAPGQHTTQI
structure (smiles),measurement,setting,value
CNC(=O)Nc1ccc2c(c1)CC[C@@]21OC(=O)N(CC(=O)N(Cc2ccc(F)cc2)[C@@H](C)C(F)(F)F)C1=O [A-485],residual activity,[1],100%
same,residual activity,[2],87%
same,residual activity,[3],95%
same,residual activity,[4],83%
same,residual activity,[5],72%
same,residual activity,[6],76%
same,residual activity,[7],71%
same,residual activity,[8],71%
same,residual activity,[9],81%
same,residual activity,[10],96%
same,residual activity,[11],100%
same,residual activity,[12],89%
same,residual activity,[13],91%
same,residual activity,[14],79%
same,residual activity,[15],72%
same,residual activity,[16],55%
same,residual activity,[17],100%
same,inhibition,[18],24%
same,residual activity,[19],93%
same,residual activity,[20],82%
same,inhibition,[21],73%
same,inhibition,[22],12%
same,residual activity,[23],91%
same,residual activity,[24],84%
same,residual activity,[25],88%
same,residual activity,[26],99%
same,residual activity,[27],88%
same,residual activity,[28],56%
same,residual activity,[29],71%
same,residual activity,[30],71%
same,residual activity,[31],79%
same,residual activity,[32],22%
same,inhibition,[33],-1.58%
same,residual activity,[34],76%
same,residual activity,[35],94%
same,inhibition,[36],12%
same,residual activity,[37],83%
same,residual activity,[38],81%
same,residual activity,[39],91%
same,residual activity,[40],81%
same,residual activity,[41],100%
same,residual activity,[42],92%
same,residual activity,[43],77%
same,residual activity,[44],90%
same,residual activity,[45],90%
CNC(=O)Nc1ccc2c(c1)[C@@]1(CC2)OC(=O)N(CC(=O)N(Cc2ccc(F)cc2)[C@@H](C)C(F)(F)F)C1=O [A-486],residual activity,[1],100%
same,residual activity,[2],100%
same,residual activity,[3],78%
same,residual activity,[4],63%
same,residual activity,[5],67%
same,residual activity,[6],81%
same,residual activity,[7],76%
same,residual activity,[8],89%
same,residual activity,[9],97%
same,residual activity,[10],92%
same,residual activity,[11],100%
same,residual activity,[12],87%
same,residual activity,[13],94%
same,residual activity,[14],91%
same,residual activity,[15],88%
same,residual activity,[16],73%
same,residual activity,[17],100%
same,inhibition,[18],19%
same,residual activity,[19],100%
same,residual activity,[20],73%
same,inhibition,[21],5%
same,inhibition,[22],2%
same,residual activity,[23],91%
same,residual activity,[24],99%
same,residual activity,[25],100%
same,residual activity,[26],98%
same,residual activity,[27],100%
same,residual activity,[28],52%
same,residual activity,[29],100%
same,residual activity,[30],87%
same,residual activity,[31],100%
same,residual activity,[32],99%
same,inhibition,[33],9.73%
same,residual activity,[34],87%
same,residual activity,[35],100%
same,inhibition,[36],8%
same,residual activity,[37],28%
same,residual activity,[38],41%
same,residual activity,[39],97%
same,residual activity,[40],61%
same,residual activity,[41],95%
same,residual activity,[42],100%
same,residual activity,[43],100%
same,residual activity,[44],100%
same,residual activity,[45],55%
